# Results reported in US20230126447A1, “OCULAR DRUG DEPOT FOR COMPLEMENT-MEDIATED DISORDERS” (priority 2020, published 2023).
# Where two headings read alike, the source gives them in different places.
# Assays:
# [1] = Ocular tissue and plasma pharmacokinetics, 50 mg/kg BID oral, New Zealand White rabbits (Example 4); format: in vivo; settings: one-hour post-dose on Day 15
# Protocol: Study design, including group designation and dose levels, are outlined in Table 15. […] Two Dutch Belted rabbits received vehicle only oral gavage doses for tolerability assessment. […] The dose volume was 5 mL/kg/dose for all groups. Safety was assessed with toxicological and ophthalmic examinations, including slit lamp biomicroscopy, indirect ophthalmoscopy, rebound tonometry, and ultrasonic corneal pachymetry. […] Plasma, vitreous humor (VH), retina, choroid-retina pigmented epithelium (Choroid-RPE), optic nerve (ON), and iris-ciliary body (I-CB) were analyzed by LC-MS/MS to quantify test article concentrations. The lower limit of quantitation (LLOQ) in plasma and vitreous humor was 1.0 ng/mL.
# [2] = In vitro binding to synthetic melanin; settings: synthetic melanin 50 μg/mL, PBS, 37° C., 1 hour
# Protocol: […] The melanin solution was stored in the dark at 37° C. until use.
# Immediately after the assay, samples were added to an equal volume of warm PBS, aliquots (3 μL each) were removed, added to 100 μL of acetonitrile containing carbutamide as internal standard, and then diluted with water (197 μL). These time-zero samples, prepared in PBS only, were also used as calibration standards.
# The assay plates containing samples with and without melanin were incubated in the dark with shaking at 37° C. for 1 hour. Following incubation, the samples were centrifuged for 15 minutes at approximately 4000 rpm at 37° C. to sediment the melanin. Sample supernatant (3 μL) was added to 100 μL of acetonitrile containing the internal standard and then diluted with water (197 μL).
# The column was set to a temperature of 55° C. […]
# Analytes and internal standards were detected using an Applied Biosystems Sciex API-5500 triple quadrupole mass spectrometer with Agilent 1260 Infinity Binary Pump and Apricot Designs ADDA High-Speed Dual Arm Autosampling System. The instrument was equipped with an electrospray ionization source (600° C.) operated in the positive ion mode. Analytes and internal standards for all samples were monitored in the multiple-reaction-monitoring scan mode.
# [3] = Ocular tissue and plasma pharmacokinetics, 15 mg/kg oral, New Zealand White rabbits (Example 3/5); format: in vivo
# Protocol: Study design including group designation and dose levels are outlined in Table 4. […] Fifteen Dutch Belted and 5 New Zealand White rabbits were used as un-dosed controls. […] The dose volume was 5 mL/kg/dose for all groups. Safety was assessed with toxicological and ophthalmic examinations including slit lamp biomicroscopy, indirect ophthalmoscopy, rebound tonometry, and ultrasonic corneal pachymetry.
# Analyst® software (Version 1.6.2) was used to capture the LC-MS/MS data and integrate the peak areas. Calibration standards and QCs were prepared in a blank solution of 75%:25% acetonitrile:water (v:v), ranging from 10 ng/mL to 10,000 ng/mL. Matrix matched standard and QC samples were prepared by mixing 2 μL of standard or QC sample above with 18 μL of appropriate ocular tissue or plasma. The final calibration standards ranged from 1 ng/mL to 1000 ng/mL. All plasma, retina, choroid-RPE, optic nerve, and vitreous humor samples were analyzed in a single run. Iris-ciliary body samples were analyzed in two runs due to a need for sample dilution. […] Dilution QCs were prepared at 5000 ng/mL where appropriate. Two sets of standards were used to bracket the analytical run at the beginning and end of the run. Three sets of QCs were included the analytical runs. All concentrations in ocular matrices are reported as ng/g based on the assumed density of 1 g/mL.
# 1, 6, 24, 96, 168, and 240 hours post-dose on Day 15, with the eyes collected at the same time as blood sampling. A single blood sample was taken from Groups 4 and 5 at sacrifice. Plasma, vitreous humor (VH), retina, choroid-retina pigmented epithelium (Choroid-RPE), optic nerve (ON), and iris-ciliary body (I-CB) were analyzed by LC-MS/MS to quantify test article concentrations. The lower limit of quantitation (LLOQ) in plasma and vitreous humor was 1.0 ng/mL. The LLOQ was 6.0 ng/g in retina, Choroid-RPE, and I-CB and the optic nerve LLOQ was 15 ng/g, assuming tissue density of 1 g/mL where relevant.
# Study design including group designation and dose levels are outlined in Table 18.
# [4] = as above; format: in vivo; remark: listed apart in the source
# [5] = Multiple ascending dose (MAD) pharmacokinetics in humans; format: in vivo
# [6] = NZW rabbit, 15 mg/kg single oral dose, Day 1, 240 h
# [7] = NZW rabbits, Day 1, 15 mg/kg single dose, 96 hr
# [8] = New Zealand White, po, Vitreous Humor, NZW rabbit, 15 mg/kg single dose, Day 1
# [9] = plasma, NZW rabbit, 15 mg/kg single dose, Day 1
# [10] = Choroid-RPE, NZW rabbit, 15 mg/kg single dose, Day 1
# [11] = NZW rabbit, 15 mg/kg single oral dose, Day 1, 0 h, 15 mg/kg
# [12] = NZW rabbit, 15 mg/kg single oral dose, Day 1, 6 h, 15 mg/kg
# [13] = NZW rabbit, 15 mg/kg single oral dose, Day 1, 24 h
# [14] = NZW rabbit, 15 mg/kg single oral dose, Day 1, 24 h, 15 mg/kg
# [15] = NZW rabbit, 15 mg/kg single oral dose, Day 1, 96 h
# [16] = NZW rabbit, 15 mg/kg single oral dose, Day 1, 96 h, 15 mg/kg
# [17] = NZW rabbit, 15 mg/kg single oral dose, Day 1, 168 h
# [18] = NZW rabbit, 15 mg/kg single oral dose, Day 1, 168 h, 15 mg/kg
# [19] = NZW rabbit, 15 mg/kg single oral dose, Day 1, 240 h, 15 mg/kg
# [20] = NZW rabbits, Day 1, 15 mg/kg single dose, 0 hr
# [21] = NZW rabbits, Day 1, 15 mg/kg single dose, 168 hr
# [22] = NZW rabbits, Day 1, 15 mg/kg single dose, 240 hr
# [23] = New Zealand White, po, Iris-Ciliary Body, NZW rabbit, 15 mg/kg single dose, Day 1
# [24] = retina, NZW rabbit, 15 mg/kg single dose, Day 1
compound,measurement,setting,value
"CC(=O)c1nn(CC(=O)N2C[C@H](F)C[C@H]2C(=O)Nc2cccc(Br)n2)c2ccc(-c3cnc(C)nc3)cc12 [Compound 1, (2S,4R)-1-(2-(3-Acetyl-5-(2-methylpyrimidin-5-yl)-1H-indazol-1-yl)acetyl)-N-(6-bromopyridin-2-yl)-4-fluoropyrrolidine-2-carboxamide]",Choroid-RPE tissue exposure in NZW versus DB rabbit,[1],approximately five-fold lower
same,Bmax (binding capacity),[2],127 nmol/mg melanin
same,Mean Vitreous Humor concentration,[3]; [6],BLQ^a
same,Mean retina concentration,[3]; [7],BLQ
same,concentration at 0 h,"[3]; New Zealand White, aqueous humor, NZW rabbit, 15 mg/kg single oral dose, Day 1, 0 h",6.14 ng/mL
same,concentration at 1 h,"[3]; New Zealand White, iris-ciliary body, NZW rabbit, 15 mg/kg single oral dose, Day 1, 1 h",117 ng/g
same,MRT last,[3]; [8],2.24 h
same,Cmax,"[3]; New Zealand White, po, retina, NZW rabbit, 15 mg/kg single dose, Day 1",200 ng/g
same,Tlast,"[3]; Vitreous Humor, NZW rabbit, 15 mg/kg single dose, Day 1",6 h
same,AUClast,[3]; [9],1.43 µg·h/mL
same,MRTlast,[4]; [10],5.87 h
same,Tlast,[4]; [10],24 h
same,Tlast,"[4]; Iris-Ciliary Body, NZW rabbit, 15 mg/kg single dose, Day 1",1 h
same,Mean Vitreous Humor concentration,"[4]; NZW rabbit, 15 mg/kg single oral dose, Day 1, 0 h",BLQ^a
same,Mean Choroid-RPE concentration,[4]; [11],BLQ^a and BLQ
same,Mean Iris-Ciliary Body concentration,[4]; [11],BLQ^a and BLQ
same,Mean plasma concentration,[4]; [11],BLQ^a and BLQ
same,Mean retina concentration,[4]; [11],BLQ^a and BLQ
same,Mean Aqueous Humor concentration,"[4]; NZW rabbit, 15 mg/kg single oral dose, Day 1, 6 h",BLQ^a
same,Mean Iris-Ciliary Body concentration,[4]; [12],BLQ^a and BLQ
same,Mean retina concentration,[4]; [12],26 ng/g
same,Mean Aqueous Humor concentration,[4]; [13],BLQ^a
same,Mean Vitreous Humor concentration,[4]; [13],BLQ^a
same,Mean Iris-Ciliary Body concentration,[4]; [14],BLQ^a and BLQ
same,Mean retina concentration,[4]; [14],BLQ^a and BLQ
same,Mean Aqueous Humor concentration,[4]; [15],BLQ^a
same,Mean Vitreous Humor concentration,[4]; [15],BLQ^a
same,Mean Choroid-RPE concentration,[4]; [16],BLQ^a and BLQ
same,Mean Iris-Ciliary Body concentration,[4]; [16],BLQ^a and BLQ
same,Mean plasma concentration,[4]; [16],BLQ^a and BLQ
same,Mean retina concentration,[4]; [16],BLQ^a and BLQ
same,Mean Aqueous Humor concentration,[4]; [17],BLQ^a
same,Mean Vitreous Humor concentration,[4]; [17],BLQ^a
same,Mean Choroid-RPE concentration,[4]; [18],BLQ^a and BLQ
same,Mean Iris-Ciliary Body concentration,[4]; [18],BLQ^a and BLQ
same,Mean retina concentration,[4]; [18],BLQ^a and BLQ
same,Mean Aqueous Humor concentration,[4]; [6],BLQ^a
same,Mean Choroid-RPE concentration,[4]; [19],BLQ^a and BLQ
same,Mean Iris-Ciliary Body concentration,[4]; [19],BLQ^a and BLQ
same,Mean plasma concentration,[4]; [19],BLQ^a and BLQ
same,Mean retina concentration,[4]; [19],BLQ^a and BLQ
same,Mean Choroid-RPE concentration,[4]; [20],BLQ
same,Mean retina concentration,[4]; [20],BLQ
same,Mean retina concentration,"[4]; NZW rabbits, Day 1, 15 mg/kg single dose, 24 hr",BLQ
same,Mean Choroid-RPE concentration,[4]; [7],BLQ
same,Mean Choroid-RPE concentration,[4]; [21],BLQ
same,Mean retina concentration,[4]; [21],BLQ
same,Mean Choroid-RPE concentration,[4]; [22],BLQ
same,Mean retina concentration,[4]; [22],BLQ
same,concentration at 1 h,"[4]; New Zealand White, aqueous humor, NZW rabbit, 15 mg/kg single oral dose, Day 1, 1 h, read-out: Mean Aqueous Humor concentration",4 ng/mL
same,concentration at 1 h,"[4]; New Zealand White, choroid-RPE, NZW rabbit, 15 mg/kg single oral dose, Day 1, 1 h, read-out: Mean Choroid-RPE concentration",172 ng/g
same,concentration at 6 h,"[4]; New Zealand White, choroid-RPE, NZW rabbit, 15 mg/kg single oral dose, Day 1, 6 h, read-out: Mean Choroid-RPE concentration",31.5 ng/g
same,concentration at 24 h,"[4]; New Zealand White, choroid-RPE, NZW rabbit, 15 mg/kg single oral dose, Day 1, 24 h, read-out: Mean Choroid-RPE concentration",15.1 ng/g
same,concentration at 1 h,"[4]; New Zealand White, plasma, NZW rabbit, 15 mg/kg single oral dose, Day 1, 1 h, read-out: Mean plasma concentration",310 ng/mL
same,concentration at 6 h,"[4]; New Zealand White, plasma, NZW rabbit, 15 mg/kg single oral dose, Day 1, 6 h, read-out: Mean plasma concentration",35.1 ng/mL
same,concentration at 24 h,"[4]; New Zealand White, plasma, NZW rabbit, 15 mg/kg single oral dose, Day 1, 24 h, read-out: Mean plasma concentration",11.1 ng/mL
same,Cmax,[4]; [23],117 ng/g
same,MRT last,[4]; [23],1 h
same,AUC(0-t),[4]; [8],0.0303 µg·h/mL
same,Cmax,[4]; [8],7.61 ng/mL
same,Cmax,"[4]; New Zealand White, po, plasma, NZW rabbit, 15 mg/kg single dose, Day 1",310 ng/mL
same,concentration at 1 h,"[4]; New Zealand White, rabbit, choroid-RPE, oral, NZW rabbits, Day 1, 15 mg/kg single dose, 1 hr, read-out: Mean Choroid-RPE Concentration",172 ng/g
same,concentration at 6 h,"[4]; New Zealand White, rabbit, choroid-RPE, oral, NZW rabbits, Day 1, 15 mg/kg single dose, 6 hr, read-out: Mean Choroid-RPE Concentration",31.5 ng/g
same,concentration at 24 h,"[4]; New Zealand White, rabbit, choroid-RPE, oral, NZW rabbits, Day 1, 15 mg/kg single dose, 24 hr, read-out: Mean Choroid-RPE Concentration",15.1 ng/g
same,concentration at 1 h,"[4]; New Zealand White, rabbit, retina, oral, NZW rabbits, Day 1, 15 mg/kg single dose, 1 hr, read-out: Mean Retina Concentration",200 ng/g
same,concentration at 6 h,"[4]; New Zealand White, rabbit, retina, oral, NZW rabbits, Day 1, 15 mg/kg single dose, 6 hr, read-out: Mean Retina Concentration",26 ng/g
same,concentration at 1 h,"[4]; New Zealand White, retina, NZW rabbit, 15 mg/kg single oral dose, Day 1, 1 h, read-out: Mean retina concentration",200 ng/g
same,concentration at 6 h,"[4]; New Zealand White, retina, NZW rabbit, 15 mg/kg single oral dose, Day 1, 6 h, read-out: Mean retina concentration",26 ng/g
same,concentration at 1 h,"[4]; New Zealand White, vitreous humor, NZW rabbit, 15 mg/kg single oral dose, Day 1, 1 h, read-out: Mean Vitreous Humor concentration",7.61 ng/mL
same,concentration at 6 h,"[4]; New Zealand White, vitreous humor, NZW rabbit, 15 mg/kg single oral dose, Day 1, 6 h, read-out: Mean Vitreous Humor concentration",3 ng/mL
same,MRTlast,[4]; [9],4.01 h
same,Tlast,[4]; [9],24 h
same,MRTlast,[4]; [24],1.49 h
same,Tlast,[4]; [24],6 h
same,Steady state conditions reached,[5]; MAD study,Day 2
same,Tmax,"[5]; human, in vivo, 200 to 800 mg BID and 75 mg TID, read-out: Median time to maximum concentration (Tmax)",1 to 2.3 h
